This is an account of results in patent publication US10183950B2, “Thienopyrimidine inhibitors of atypical protein kinase C” (Cancer Research Technology Limited, priority 2011, dated 2019).

Structures are written as SMILES. pIC50: −log10 of the molar value.

As a reminder, the pIC50 is −log10 of the IC50, conventionally taken in molar units.

In one assay the target is T1, full-length human PKCι (Homo sapiens, UniProt P41743).
T1 construct: Recombinant, full-length human PKCι expressed in Sf21 insect cells is also commercially available; purchased; host or cells: Sf21 insect cells
T1 sequence (P41743 1-596): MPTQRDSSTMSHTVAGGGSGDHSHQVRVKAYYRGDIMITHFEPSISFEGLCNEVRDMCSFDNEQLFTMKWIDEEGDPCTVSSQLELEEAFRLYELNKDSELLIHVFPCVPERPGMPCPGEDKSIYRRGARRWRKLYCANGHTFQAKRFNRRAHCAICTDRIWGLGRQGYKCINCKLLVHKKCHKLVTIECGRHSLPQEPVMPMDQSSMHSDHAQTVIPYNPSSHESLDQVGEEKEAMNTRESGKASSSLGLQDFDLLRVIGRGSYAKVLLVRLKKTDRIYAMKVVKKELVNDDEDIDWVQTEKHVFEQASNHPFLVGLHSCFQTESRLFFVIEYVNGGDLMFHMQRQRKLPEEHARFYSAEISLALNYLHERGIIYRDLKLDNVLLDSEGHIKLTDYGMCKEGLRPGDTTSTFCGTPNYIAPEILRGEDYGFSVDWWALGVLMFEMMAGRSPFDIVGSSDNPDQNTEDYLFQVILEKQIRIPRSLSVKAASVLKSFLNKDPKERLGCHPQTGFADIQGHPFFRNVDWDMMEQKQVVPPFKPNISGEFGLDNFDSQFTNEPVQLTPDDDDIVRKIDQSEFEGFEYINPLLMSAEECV
The experiment in a line: PKCι IC50 IMAP fluorescence polarisation assay, full-length enzyme. It counts as biochemical. Conditions: full length PKCi at 15 μM ATP; read-out: IC50 in IMAP assay against full length PKCi. On the technique in general: Polarisation of emitted light reports the rotation of a fluorescent probe.
On to `Cc1cc(-c2csc3c(NC[C@@H](N)Cc4ccccc4)nc(-c4ccncc4)nc23)no1` [compound 568, (S)-N*1*-[7-(5-Methyl-isoxazol-3-yl)-2-pyridin-4-yl-thieno[3,2-d]pyrimidin-4-yl]-3-phenyl-propane-1,2-diamine], for which the pIC50 was 6.00 to 7.00.
In the case of `Cc1nc(C)c(-c2c(C)sc3c(NC[C@@H](N)Cc4ccccc4)nc(-c4ccncc4)nc23)s1` [compound 457, (S)-N*1*-[7-(2,4-Dimethyl-thiazol-5-yl)-6-methyl-2-pyridin-4-yl-thieno[3,2-d]pyrimidin-4-yl]-3-phenyl-propane-1,2-diamine], the pIC50 was 4.40 to 5.00.
The same measure, in the same setting: the result for `Cc1cc(Nc2csc3c(NC[C@@H](N)Cc4ccccc4)nc(-c4ccncc4)nc23)no1` [compound 490, N*4*-((S)-2-Amino-3-phenyl-propyl)-N*7*-(5-methyl-isoxazol-3-yl)-2-pyridin-4-yl-thieno[3,2-d]pyrimidine-4,7-diamine] reads greater than 7.00.
The same measure, in the same setting: the value for `O=C(Nc1cc(-c2nc(N[C@@H]3CCNC3)c3sccc3n2)ccn1)c1cnccn1` [compound 615, Pyrazine-2-carboxylic acid {4-[4-((R)-pyrrolidin-3-ylamino)-thieno[3,2-d]pyrimidin-2-yl]-pyridin-2-yl}-amide] was 5.00 to 6.00; that for `c1cc(-c2nc(N[C@@H]3CCNC3)c3sccc3n2)cc(Nc2ccc(N3CCCCC3)cc2)n1` [compound 608, {2-[2-(4-Piperidin-1-yl-phenylamino)-pyridin-4-yl]-thieno[3,2-d]pyrimidin-4-yl}-(R)-pyrrolidin-3-yl-amine] was 6.00 to 7.00; that for `c1cc(-c2nc(N[C@@H]3CCNC3)c3sccc3n2)cc(NC2CCCCC2)n1` [compound 623, [2-(2-Cyclohexylamino-pyridin-4-yl)-thieno[3,2-d]pyrimidin-4-yl]-(R)-pyrrolidin-3-yl-amine] was 4.40 to 5.00.
The same measure, in the same setting: the result for `Cc1sc2c(N[C@@H]3CCNC3)nc(-c3ccncc3)nc2c1Br` [compound 328, (7-Bromo-6-methyl-2-pyridin-4-yl-thieno[3,2-d]pyrimidin-4-yl)-(R)-pyrrolidin-3-yl-amine] reads 6.00 to 7.00; that for `C[C@@H](O)CNc1cc(-c2nc(N[C@@H]3CCNC3)c3sccc3n2)ccn1` [compound 592, (R)-1-{4-[4-((R)-Pyrrolidin-3-ylamino)-thieno[3,2-d]pyrimidin-2-yl]-pyridin-2-ylamino}-propan-2-ol], 5.00 to 6.00.
`CC[C@H](Nc1cc(-c2nc(N[C@@H]3CCNC3)c3sccc3n2)ccn1)c1ccccc1` [compound 589, {2-[2-((S)-1-Phenyl-propylamino)-pyridin-4-yl]-thieno[3,2-d]pyrimidin-4-yl}-(R)-pyrrolidin-3-yl-amine]: the pIC50 is 5.00 to 6.00.
Take `COc1ccc(C)cc1-c1c(C)sc2c(NC[C@@H](N)Cc3ccccc3)nc(-c3ccncc3)nc12` [compound 450, (S)-N*1*-[7-(2-Methoxy-5-methyl-phenyl)-6-methyl-2-pyridin-4-yl-thieno[3,2-d]pyrimidin-4-yl]-3-phenyl-propane-1,2-diamine]: the negative-log IC50 (pIC50) was 4.40 to 5.00.
Same read-out and setting: the result for `Nc1csc2c(N[C@@H]3CCNC3)nc(-c3ccncc3)nc12` [compound 567, 2-Pyridin-4-yl-N*4*-(R)-pyrrolidin-3-yl-thieno[3,2-d]pyrimidine-4,7-diamine] reads 5.00 to 6.00; that for `Cc1ccc(-c2csc3c(NC[C@@H](N)Cc4ccccc4)nc(-c4ccncc4)nc23)o1` [compound 412, (S)-N*1*-[7-(5-Methyl-furan-2-yl)-2-pyridin-4-yl-thieno[3,2-d]pyrimidin-4-yl]-3-phenyl-propane-1,2-diamine], 5.00 to 6.00.
Same read-out and setting: the value for `Fc1ccc(Nc2csc3c(N[C@@H]4CCNC4)nc(-c4ccncc4F)nc23)cc1` [compound 493, N*7*-(4-Fluoro-phenyl)-2-(3-fluoro-pyridin-4-yl)-N*4*-(R)-pyrrolidin-3-yl-thieno[3,2-d]pyrimidine-4,7-diamine] was 4.40 to 5.00; that for `Cc1ncccc1-c1c(C)sc2c(NC[C@@H](N)Cc3ccccc3)nc(-c3ccncc3)nc12` [compound 459, (S)-N*1*-[6-Methyl-7-(2-methyl-pyridin-3-yl)-2-pyridin-4-yl-thieno[3,2-d]pyrimidin-4-yl]-3-phenyl-propane-1,2-diamine] was 4.40 to 5.00.
Same read-out and setting: the result for `Cc1sc2c(NC[C@@H](N)Cc3ccccc3)nc(-c3ccncc3)nc2c1-c1ccccc1` [compound 449, (S)-N*1*-(6-Methyl-7-phenyl-2-pyridin-4-yl-thieno[3,2-d]pyrimidin-4-yl)-3-phenyl-propane-1,2-diamine] reads 5.00 to 6.00.
Take `N[C@H](CNc1nc(-c2ccncc2F)nc2c(Br)csc12)Cc1ccccc1` [compound 304, (S)—N*1*-[7-Bromo-2-(3-fluoro-pyridin-4-yl)-thieno[3,2-d]pyrimidin-4-yl]-3-phenyl-propane-1,2-diamine]: the negative logarithm of the IC50 (pIC50) was greater than 7.00.
The same measure, in the same setting: the value for `N[C@H](CNc1nc(-c2ccncc2F)nc2c(-c3cc(C(F)(F)F)[nH]n3)csc12)Cc1ccccc1` [compound 421, (S)-N*1*-[2-(3-Fluoro-pyridin-4-yl)-7-(5-trifluoromethyl-2H-pyrazol-3-yl)-thieno[3,2-d]pyrimidin-4-yl]-3-phenyl-propane-1,2-diamine] was 5.00 to 6.00.
The same measure, in the same setting: the result for `Cc1ccccc1Nc1csc2c(N[C@@H]3CCNC3)nc(-c3ccncc3F)nc12` [compound 498, 2-(3-Fluoro-pyridin-4-yl)-N*4*-(R)-pyrrolidin-3-yl-N*7*-o-tolyl-thieno[3,2-d]pyrimidine-4,7-diamine] reads 5.00 to 6.00; that for `N[C@H](CNc1nc(-c2ccncc2)nc2c(C(=O)NC3CC3)csc12)Cc1ccccc1` [compound 556, 4-((S)-2-Amino-3-phenyl-propylamino)-2-pyridin-4-yl-thieno[3,2-d]pyrimidine-7-carboxylic acid cyclopropylamide], 6.00 to 7.00.
The same measure, in the same setting: the result for `NCc1coc(-c2csc3c(NC[C@@H](N)Cc4ccccc4)nc(-c4ccncc4F)nc23)c1` [compound 435, S)-N*1*-[7-(4-Aminomethyl-furan-2-yl)-2-(3-fluoro-pyridin-4-yl)-thieno[3,2-d]pyrimidin-4-yl]-3-phenyl-propane-1,2-diamine] reads 5.00 to 6.00; that for `N[C@H](CNc1nc(-c2ccncc2F)nc2c(C#CCCO)csc12)Cc1ccccc1` [compound 501, 4-[4-((S)-2-Amino-3-phenyl-propylamino)-2-(3-fluoro-pyridin-4-yl)-thieno[3,2-d]pyrimidin-7-yl]-but-3-yn-1-ol], 6.00 to 7.00.

Staying with this assay, now noted: full length PKCi at 15 μM ATP; read-out: IC50 in IMAP assay against full length PKCi (Activity).
As for `CN1CCc2c(sc3nc(-c4ccncc4)nc(NCCN)c23)C1` [compound 113, N*1*-(7-Methyl-2-pyridin-4-yl-5,6,7,8-tetrahydro-pyrido[4′,3′:4,5]thieno[2,3-d]pyrimidin-4-yl)-ethane-1,2-diamine], the pIC50 is 4.40 to 5.00.
The same measure, in the same setting: the result for `N[C@H](CNc1nc(-c2ccncc2)nc2sc3c(c12)CCCC3)Cc1ccccc1O` [compound 65, 2-[(S)-2-amino-3-(2-pyridin-4-yl-5,6,7,8-tetrahydro-benzo[4,5]thieno[2,3-d]pyrimidin-4-ylamino)-propyl]-phenol] reads greater than 7.00; that for `CCC(=O)N1CCc2c(sc3nc(-c4ccncc4)nc(NCCN)c23)C1` [compound 106, 1-[4-(2-Amino-ethylamino)-2-pyridin-4-yl-5,8-dihydro-6H-pyrido[4′,3′:4,5]thieno[2,3-d]pyrimidin-7-yl]-propan-1-one], 4.40 to 5.00.
